The values below come from patent US20040208919A1, “Vaccination against prion diseases” (priority 2002, published 2004).

This experiment relates to primary rat hippocampal neurons. The format is cell-based.

Where “and” joins values, the source holds several entries; their conditions need not be identical. Equal values may be shown once.

As to WGQGGGTHSQWNKPSKPK [PrP 89-106], the Cell death % was 5 ± 2% and 2 ± 6%.
Take KTNMKHMAGAAAAGAVVGGLG [PrP 106-126]: the “Neuronal death, mode and dose dependence” value is “occurred by apoptosis in a dose dependent manner”; the “Neurotoxicity compared with the other synthetic PrP fragments” value is reported as “most neurotoxic fragment”.
For “NGAKALMGGHGATKVMVGAAA [PrP 106-126 scrambled, reference compound]”, the Cell death % was 3 ± 2% and 8 ± 3%.
For WGQPHGGG [PrP 57-64], the Cell death % was 0 ± 5% and 3 ± 4%.
